Measured values: PMC10967572, “Induction of Oxidative Stress and Ferroptosis in Triple-Negative Breast Cancer Cells by Niclosamide via Blockade of the Function and Expression of SLC38A5 and SLC7A11” (Antioxidants, 2024)

Legend:
Nrf2 = Nrf2 expression and subcellular localization (immunostaining, Western blot, qRT-PCR) in TNBC cells; assay type: cell-based, human; conditions: niclosamide 2 μM, 24 h; for Nrf2 protein level: Western blot; for Nrf2 mRNA level: qRT-PCR
Experimental: (§1) Total RNA was extracted from cells using TRIzol Reagent (ThermoFisher Scientific, Waltham, MA, USA) and the RNA was reverse-transcribed using a high-capacity cDNA reverse transcription kit (ThermoFisher Scientific, Waltham, MA, USA) according to the manufacturer’s protocol. Quantitative RT-PCR was performed with Takara Taq Hot Start Version (TaKaRa Biotechnology, Shiga, Japan) or Power SYBR Green PCR master mix (Bio-Rad, Hercules, CA, USA). Primer sequences are shown in Supplemental Table S1. The relative mRNA expression was determined by the 2^−∆∆Ct method. Additionally, 18S was used as a housekeeping gene for normalization.
Cells and tumor tissues were lysed in Pierce™ RIPA buffer (ThermoFisher Scientific, Waltham, MA, USA) supplemented with Halt™ Protease and Phosphatase Inhibitor Cocktail (ThermoFisher Scientific, Waltham, MA, USA). Homogenates were centrifuged, and supernatants were used for protein measurement via Pierce™ BCA Protein Assay Kit (ThermoFisher Scientific, Waltham, MA, USA). […] Western blot samples were prepared in Laemmli sample buffer (Bio-Rad Laboratories, Hercules, CA, USA). They were loaded onto a SDS–PAGE gel and transferred onto a PVDF membrane (Bio-Rad Laboratories, Hercules, CA, USA). The membrane was blocked and antibodies diluted in 5% nonfat dry milk (Bio-Rad Laboratories, Hercules, CA, USA) or in 5% bovine serum albumin (Irvine Scientific, Santa Ana, CA, USA) were used. Protein bands were visualized using Pierce™ ECL Western Blotting Substrate (ThermoFisher Scientific, Waltham, MA, USA) and developed on the autoradiography film (Santa Cruz, Dallas, TX, USA). Primary antibodies were purchased either from Cell Signaling (Danvers, MA, USA) [anti-GPX4 (#52455), anti-FTH (#4393), anti-HSP60 (#12165), anti-phospho-p70S6K (#9205), anti-p70S6K (#2708)] or from Abcam (Waltham, MA, USA) [Nrf2 (#ab62352)]. Secondary antibody Horseradish peroxidase-conjugated goat anti-rabbit IgG (#1706515) was purchased from Bio-Rad Laboratories (Hercules, CA, USA). For quantification of protein levels by the densitometric analysis, the experiment was carried out in triplicate and the data were collected from the resultant three Western blots.

SLC38A5 and SLC7A11 mRNA = test: qRT-PCR of SLC38A5 and SLC7A11 mRNA in TNBC cells; assay type: cell-based, human; conditions: niclosamide 2 μM, 24 h; MB231 and TXBR100
Experimental: as §1

MB231 xenograft = test: Mouse xenograft tumor growth; assay type: in vivo; conditions: MB231 xenograft in nude mice; niclosamide 4 mg/kg daily intraperitoneal
Experimental: Female athymic nude mice (4-week-old) were purchased from Jackson Laboratories and housed under standard conditions. MDA-MB231 cells were injected into lower mammary fat pad (5 × 10^6 cells). All cells were suspended in serum-free media and Matrigel (1:1 ratio), with 100 µL of suspension being injected into each mouse. Mice were treated by daily intraperitoneal injection of niclosamide (4 mg/kg/day) and vehicle (dimethylsulfoxide) control. The treatment began when the tumor size was 100–150 mm^3. Tumor size was measured biweekly with a caliper, with tumor volume calculated using the formula (width^2 × length)/2. Tumors were allowed to grow for 7 weeks; mice were then euthanized via isoflurane […] and tumors harvested. The animal study protocol was approved by the Texas Tech University Health Sciences Center Institutional Animal Care and Use Committee (IACUC protocol number 18005) and the experiments were conducted in the same institution. RNA and protein were prepared from the tumor tissue for qRT-PCR and Western blotting.

[1] = system: TNBC cells (MB231 and TXBR100); test: Colony formation (clonogenic) assay; assay type: cell-based, human; conditions: niclosamide 0.5 μM, 10 days
Excerpt: We performed the colony formation (clonogenic) assay with different doses of niclosamide on two different TNBC cell lines. Initial seeding was done with 500 cells/well and culture was continued for 10 days with culture medium replaced with fresh medium with freshly prepared niclosamide every other day. At the end of the 10-day time period, the medium was removed and the colonies were fixed with ice-cold methanol/acetone and then stained with Giemsa stain.

[2] = set-up: method as in PMID 31078739, PMID 33737681; conditions: oral; cited from earlier work

For `O=C(Nc1ccc([N+](=O)[O-])cc1Cl)c1cc(Cl)ccc1O` [niclosamide], the Nrf2 protein level (Nrf2; MB231) was “decreased”, the “Nrf2 mRNA level” value (Nrf2; MB231) was “decreased” and the Nrf2 protein level (Nrf2; TXBR100) was “significantly decreased”. The “Nrf2 mRNA level” value (Nrf2; TXBR100) was “did not alter”, the “SLC7A11 mRNA level” value (SLC38A5 and SLC7A11 mRNA) was “decreased” and the “SLC38A5 mRNA level” value (SLC38A5 and SLC7A11 mRNA) was “decreased”. The “growth of the tumors” value (MB231 xenograft) was “drastic reduction”, the “decrease in colony formation” value [1] was > 50% and the “bioavailability when given orally” value [2] was “low”.
